US20230150986A1, “ANTAGONISTS OF THE MUSCARINIC ACETYLCHOLINE RECEPTOR M4” (Vanderbilt University, priority 2019, published 2023)

Biological target: T1, Human M4 (Homo sapiens, UniProt P08173)
T1 construct: Human or rat M4 cDNA, along with the chimeric G protein Gq,5, were transfected into Chinese hamster ovary (CHO-K1) cells; expressed in transfected cells; host or cells: CHO-K1 (M4/Gqi5/CHO)
T1 sequence (P08173 1-479): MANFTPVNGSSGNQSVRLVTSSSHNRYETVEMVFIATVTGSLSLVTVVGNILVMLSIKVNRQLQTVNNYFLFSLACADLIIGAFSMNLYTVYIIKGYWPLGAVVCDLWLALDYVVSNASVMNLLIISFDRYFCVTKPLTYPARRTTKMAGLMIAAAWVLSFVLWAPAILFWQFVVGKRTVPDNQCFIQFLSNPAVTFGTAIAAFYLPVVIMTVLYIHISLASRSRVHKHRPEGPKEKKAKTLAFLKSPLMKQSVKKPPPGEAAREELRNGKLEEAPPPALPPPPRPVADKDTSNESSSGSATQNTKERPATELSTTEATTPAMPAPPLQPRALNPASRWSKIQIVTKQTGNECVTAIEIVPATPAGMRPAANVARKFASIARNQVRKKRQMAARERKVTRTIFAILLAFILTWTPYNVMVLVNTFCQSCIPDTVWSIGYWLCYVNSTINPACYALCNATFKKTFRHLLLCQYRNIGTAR
Test: mAChR M4 cell-based functional assay (calcium flux, decrease of EC80 acetylcholine response)
Conditions: for Human M4 Emin: % ACh maximum at 30 μM; for IC50: CHO-K1 cells with human M4 and Gqi5, EC80 acetylcholine
In short: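 CHO-K1 cells stably co-expressing M4 with chimeric Gqi5, loaded with Fluo-4 AM for 50 min at 37 °C; compounds added as 10-point 1:3 curves, then acetylcholine at EC20 (143 s) and EC80 (268 s). Calcium read by FDSS fluorescence ratio; IC50 from four-parameter fit of decrease in EC80 acetylcholine response.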

Human M4 Emin [%]	IC50 [nM]	Compound
4	10.5	Fc1cc(F)c(F)c(-c2ccc(N[C@H]3C[C@@H]4CN(CC5CCOCC5)C[C@@H]4C3)nn2)c1 [Compound 1, (3aR,5s,6aS)-2-((tetrahydro-2H-pyran-4-yl)methyl)-N-(6-(2,3,5-trifluorophenyl)pyridazin-3-yl)octahydrocyclopenta[c]pyrrol-5-amine]
4	21.1	Fc1cc(F)c(F)c(-c2ccc(N[C@H]3C[C@@H]4CN(Cc5ccccn5)C[C@@H]4C3)nn2)c1 [Compound 2, (3aR,5s,6aS)-2-(pyridin-2-ylmethyl)-N-(6-(2,3,5-trifluorophenyl)pyridazin-3-yl)octahydrocyclopenta[c]pyrrol-5-amine]
